In publication PMC10176470, “Engaging a Non-catalytic Cysteine Residue Drives Potent and Selective Inhibition of Caspase-6” (Journal of the American Chemical Society, 2023):

Legend:
Type in all cases: cell-based
[1] = molecular target: T1, proteins of HEK293T cells transiently overexpressing caspase-6 (Homo sapiens, UniProt Q8WUM4); conditions: protein PDCD6IP (Q8WUM4); exp_ref Probe; analysis C6
T1 sequence (Q8WUM4 1-868): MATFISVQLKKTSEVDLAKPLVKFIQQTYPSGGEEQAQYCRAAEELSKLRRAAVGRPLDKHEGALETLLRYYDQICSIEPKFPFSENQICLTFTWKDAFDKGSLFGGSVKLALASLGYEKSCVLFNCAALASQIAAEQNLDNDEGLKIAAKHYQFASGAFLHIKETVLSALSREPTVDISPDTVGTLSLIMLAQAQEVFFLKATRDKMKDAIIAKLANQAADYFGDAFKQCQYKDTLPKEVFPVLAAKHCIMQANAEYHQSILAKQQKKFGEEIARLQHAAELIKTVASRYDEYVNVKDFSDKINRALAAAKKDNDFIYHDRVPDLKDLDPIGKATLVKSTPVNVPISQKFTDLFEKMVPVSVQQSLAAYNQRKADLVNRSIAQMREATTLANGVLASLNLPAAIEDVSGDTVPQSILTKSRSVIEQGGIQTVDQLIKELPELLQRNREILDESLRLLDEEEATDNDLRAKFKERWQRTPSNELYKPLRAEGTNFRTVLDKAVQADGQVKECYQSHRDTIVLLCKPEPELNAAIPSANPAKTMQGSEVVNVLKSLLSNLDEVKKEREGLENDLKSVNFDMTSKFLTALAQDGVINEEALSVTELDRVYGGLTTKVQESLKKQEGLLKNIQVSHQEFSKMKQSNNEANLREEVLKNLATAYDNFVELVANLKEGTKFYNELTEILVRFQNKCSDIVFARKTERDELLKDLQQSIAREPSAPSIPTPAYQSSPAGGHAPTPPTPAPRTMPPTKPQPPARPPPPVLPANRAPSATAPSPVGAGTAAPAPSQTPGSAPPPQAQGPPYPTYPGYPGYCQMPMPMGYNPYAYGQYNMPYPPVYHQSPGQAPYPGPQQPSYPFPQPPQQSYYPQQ

[2] = molecular target: proteins of HEK293T cells transiently overexpressing caspase-6 (Homo sapiens, UniProt P13639); conditions: protein EEF2 (P13639)
[3] = molecular target: proteins of HEK293T cells transiently overexpressing caspase-6 (Homo sapiens, UniProt P10155); conditions: Probe; protein TROVE2 P10155
[4] = molecular target: proteins of HEK293T cells transiently overexpressing caspase-6 (Homo sapiens, UniProt P31689); conditions: exp_ref Probe; protein DNAJA1 (P31689); analysis C6
[5] = molecular target: proteins of HEK293T cells transiently overexpressing caspase-6 (Homo sapiens, UniProt P32119); conditions: exp_ref Probe; protein PRDX2 (P32119); analysis C6
[6] = molecular target: proteins of HEK293T cells transiently overexpressing caspase-6 (Homo sapiens, UniProt Q9Y5B9); conditions: Probe; protein SUPT16H Q9Y5B9
[7] = molecular target: proteins of HEK293T cells transiently overexpressing caspase-6 (Homo sapiens, UniProt O43143); conditions: exp_ref Probe; protein DHX15 (O43143); analysis C6
[8] = molecular target: proteins of HEK293T cells transiently overexpressing caspase-6 (Homo sapiens, UniProt P46779); conditions: exp_ref Probe; protein RPL28 (P46779); analysis C6
[9] = molecular target: proteins of HEK293T cells transiently overexpressing caspase-6 (Homo sapiens, UniProt P26599); conditions: exp_ref Probe; protein PTBP1 (P26599); analysis C6
[10] = molecular target: T2, proteins of HEK293T cells transiently overexpressing caspase-6 (Homo sapiens, UniProt P62258); conditions: protein YWHAE (P62258)
T2 sequence (P62258 1-255): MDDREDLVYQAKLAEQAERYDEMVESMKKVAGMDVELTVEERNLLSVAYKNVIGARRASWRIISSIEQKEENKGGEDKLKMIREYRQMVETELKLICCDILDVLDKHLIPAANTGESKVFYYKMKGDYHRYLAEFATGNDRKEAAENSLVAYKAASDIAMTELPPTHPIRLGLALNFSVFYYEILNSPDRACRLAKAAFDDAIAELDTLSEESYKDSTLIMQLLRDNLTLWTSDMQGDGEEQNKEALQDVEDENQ

[11] = molecular target: proteins of HEK293T cells transiently overexpressing caspase-6 (Homo sapiens, UniProt Q16576); conditions: exp_ref Probe; protein RBBP7 (Q16576); analysis C6
[12] = molecular target: proteins of HEK293T cells transiently overexpressing caspase-6 (Homo sapiens, UniProt P55072); conditions: exp_ref Probe; protein VCP (P55072); analysis C6
[13] = molecular target: proteins of HEK293T cells transiently overexpressing caspase-6 (Homo sapiens, UniProt P61978); conditions: protein HNRNPK (P61978)
[14] = molecular target: proteins of HEK293T cells transiently overexpressing caspase-6 (Homo sapiens, UniProt Q14974); conditions: protein KPNB1 (Q14974)
[15] = molecular target: proteins of HEK293T cells transiently overexpressing caspase-6 (Homo sapiens, UniProt P13797); conditions: exp_ref Probe; protein PLS3 (P13797); analysis C6
[16] = molecular target: proteins of HEK293T cells transiently overexpressing caspase-6 (Homo sapiens, UniProt P22626); conditions: exp_ref Probe; protein HNRNPA2B1 (P22626); analysis C6
[17] = molecular target: proteins of HEK293T cells transiently overexpressing caspase-6 (Homo sapiens, UniProt P31930); conditions: Probe; protein UQCRC1 P31930

proteins of HEK293T cells transiently overexpressing caspase-6 (Homo sapiens, UniProt Q14974), sequence (Q14974 whole entry): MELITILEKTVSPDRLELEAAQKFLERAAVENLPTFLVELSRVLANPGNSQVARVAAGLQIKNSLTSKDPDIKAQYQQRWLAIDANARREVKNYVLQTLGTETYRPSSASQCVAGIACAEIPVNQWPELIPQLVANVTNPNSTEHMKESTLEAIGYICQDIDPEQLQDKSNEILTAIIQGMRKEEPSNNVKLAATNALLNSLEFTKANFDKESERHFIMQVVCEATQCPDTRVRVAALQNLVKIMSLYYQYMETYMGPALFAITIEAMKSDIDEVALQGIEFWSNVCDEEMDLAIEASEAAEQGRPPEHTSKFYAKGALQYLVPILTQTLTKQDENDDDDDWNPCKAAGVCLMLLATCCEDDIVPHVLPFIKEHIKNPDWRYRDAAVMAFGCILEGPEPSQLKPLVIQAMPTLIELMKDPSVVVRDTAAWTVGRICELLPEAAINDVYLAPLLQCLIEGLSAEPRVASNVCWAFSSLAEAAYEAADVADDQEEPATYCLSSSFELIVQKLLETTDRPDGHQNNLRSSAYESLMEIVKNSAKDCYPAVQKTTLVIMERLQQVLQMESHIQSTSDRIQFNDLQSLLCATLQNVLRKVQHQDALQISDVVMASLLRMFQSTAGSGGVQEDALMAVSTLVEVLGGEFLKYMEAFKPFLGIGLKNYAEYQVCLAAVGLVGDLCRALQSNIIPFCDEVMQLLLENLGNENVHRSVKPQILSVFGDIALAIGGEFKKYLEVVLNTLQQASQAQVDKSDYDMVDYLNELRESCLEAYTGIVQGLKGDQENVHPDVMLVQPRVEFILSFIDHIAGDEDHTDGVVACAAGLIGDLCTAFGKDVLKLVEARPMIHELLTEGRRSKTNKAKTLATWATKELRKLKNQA
proteins of HEK293T cells transiently overexpressing caspase-6 (Homo sapiens, UniProt P13797), sequence (P13797 whole entry): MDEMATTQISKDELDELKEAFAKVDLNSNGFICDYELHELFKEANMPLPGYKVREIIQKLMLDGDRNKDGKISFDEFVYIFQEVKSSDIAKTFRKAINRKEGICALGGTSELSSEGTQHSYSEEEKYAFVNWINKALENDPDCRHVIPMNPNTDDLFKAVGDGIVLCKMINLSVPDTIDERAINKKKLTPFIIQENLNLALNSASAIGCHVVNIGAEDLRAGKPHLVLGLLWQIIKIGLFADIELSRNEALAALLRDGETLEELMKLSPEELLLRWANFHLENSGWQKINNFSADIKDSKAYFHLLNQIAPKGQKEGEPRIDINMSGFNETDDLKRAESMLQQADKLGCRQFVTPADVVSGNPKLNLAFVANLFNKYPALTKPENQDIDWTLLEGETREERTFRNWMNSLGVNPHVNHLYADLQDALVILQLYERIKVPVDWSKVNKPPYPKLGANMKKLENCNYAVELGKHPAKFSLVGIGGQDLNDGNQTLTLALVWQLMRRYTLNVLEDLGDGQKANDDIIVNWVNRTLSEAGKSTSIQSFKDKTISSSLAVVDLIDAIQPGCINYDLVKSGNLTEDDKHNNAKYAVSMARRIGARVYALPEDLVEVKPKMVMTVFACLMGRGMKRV
proteins of HEK293T cells transiently overexpressing caspase-6 (Homo sapiens, UniProt P26599), sequence (P26599 whole entry): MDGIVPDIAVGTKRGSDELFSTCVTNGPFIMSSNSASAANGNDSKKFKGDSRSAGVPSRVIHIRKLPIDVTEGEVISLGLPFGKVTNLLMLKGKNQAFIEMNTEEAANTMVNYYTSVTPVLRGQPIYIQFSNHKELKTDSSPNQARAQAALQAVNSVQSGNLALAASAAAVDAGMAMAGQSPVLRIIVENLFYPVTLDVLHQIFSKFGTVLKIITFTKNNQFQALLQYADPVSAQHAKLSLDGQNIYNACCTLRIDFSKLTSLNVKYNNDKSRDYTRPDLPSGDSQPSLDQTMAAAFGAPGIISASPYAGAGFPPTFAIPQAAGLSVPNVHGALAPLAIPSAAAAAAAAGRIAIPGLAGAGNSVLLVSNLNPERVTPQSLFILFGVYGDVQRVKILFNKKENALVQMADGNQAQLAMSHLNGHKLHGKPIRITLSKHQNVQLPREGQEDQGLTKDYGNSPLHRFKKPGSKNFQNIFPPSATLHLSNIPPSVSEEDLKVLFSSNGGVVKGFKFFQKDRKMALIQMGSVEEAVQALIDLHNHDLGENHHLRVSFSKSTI
proteins of HEK293T cells transiently overexpressing caspase-6 (Homo sapiens, UniProt Q9Y5B9), sequence (Q9Y5B9 whole entry): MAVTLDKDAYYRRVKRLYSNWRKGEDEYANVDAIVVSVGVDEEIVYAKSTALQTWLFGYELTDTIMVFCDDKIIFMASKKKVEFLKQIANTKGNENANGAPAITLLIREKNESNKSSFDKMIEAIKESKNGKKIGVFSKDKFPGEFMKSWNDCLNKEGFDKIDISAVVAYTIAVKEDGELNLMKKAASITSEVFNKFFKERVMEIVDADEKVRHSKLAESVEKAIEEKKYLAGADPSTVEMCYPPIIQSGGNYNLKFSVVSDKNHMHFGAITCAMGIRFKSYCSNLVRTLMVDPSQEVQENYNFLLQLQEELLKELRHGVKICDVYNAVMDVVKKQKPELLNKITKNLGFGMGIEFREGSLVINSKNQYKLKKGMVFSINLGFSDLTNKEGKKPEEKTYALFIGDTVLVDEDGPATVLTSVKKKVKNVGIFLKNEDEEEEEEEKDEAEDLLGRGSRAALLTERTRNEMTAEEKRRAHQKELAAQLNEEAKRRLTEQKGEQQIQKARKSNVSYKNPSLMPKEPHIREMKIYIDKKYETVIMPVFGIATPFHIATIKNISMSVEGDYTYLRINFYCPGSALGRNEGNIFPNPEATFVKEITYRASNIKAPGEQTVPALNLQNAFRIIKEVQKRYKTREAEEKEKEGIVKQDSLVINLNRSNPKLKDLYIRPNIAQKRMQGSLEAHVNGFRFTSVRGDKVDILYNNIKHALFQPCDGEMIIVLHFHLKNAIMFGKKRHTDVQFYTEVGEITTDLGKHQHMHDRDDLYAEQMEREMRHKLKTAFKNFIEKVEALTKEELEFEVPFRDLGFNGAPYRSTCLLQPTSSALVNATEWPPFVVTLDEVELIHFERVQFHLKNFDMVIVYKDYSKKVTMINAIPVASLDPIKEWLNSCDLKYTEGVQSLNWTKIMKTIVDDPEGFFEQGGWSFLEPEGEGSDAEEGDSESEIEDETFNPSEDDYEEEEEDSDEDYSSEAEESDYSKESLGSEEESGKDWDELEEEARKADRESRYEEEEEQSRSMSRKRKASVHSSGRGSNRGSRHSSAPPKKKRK
proteins of HEK293T cells transiently overexpressing caspase-6 (Homo sapiens, UniProt P10155), sequence (P10155 whole entry): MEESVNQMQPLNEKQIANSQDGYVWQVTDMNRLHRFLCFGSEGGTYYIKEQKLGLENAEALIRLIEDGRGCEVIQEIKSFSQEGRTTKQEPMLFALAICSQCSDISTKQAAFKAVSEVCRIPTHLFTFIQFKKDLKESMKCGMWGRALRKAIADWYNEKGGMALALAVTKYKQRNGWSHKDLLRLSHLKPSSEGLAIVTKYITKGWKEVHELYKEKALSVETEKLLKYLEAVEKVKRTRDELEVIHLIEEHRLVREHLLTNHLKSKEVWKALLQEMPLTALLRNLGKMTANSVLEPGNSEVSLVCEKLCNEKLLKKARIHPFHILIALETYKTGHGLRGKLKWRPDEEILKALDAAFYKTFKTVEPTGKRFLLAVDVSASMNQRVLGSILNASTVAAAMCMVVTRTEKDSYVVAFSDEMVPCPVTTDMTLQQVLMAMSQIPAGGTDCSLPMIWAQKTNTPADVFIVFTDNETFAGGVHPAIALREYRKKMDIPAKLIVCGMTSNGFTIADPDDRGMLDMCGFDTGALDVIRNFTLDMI
proteins of HEK293T cells transiently overexpressing caspase-6 (Homo sapiens, UniProt O43143), sequence (O43143 whole entry): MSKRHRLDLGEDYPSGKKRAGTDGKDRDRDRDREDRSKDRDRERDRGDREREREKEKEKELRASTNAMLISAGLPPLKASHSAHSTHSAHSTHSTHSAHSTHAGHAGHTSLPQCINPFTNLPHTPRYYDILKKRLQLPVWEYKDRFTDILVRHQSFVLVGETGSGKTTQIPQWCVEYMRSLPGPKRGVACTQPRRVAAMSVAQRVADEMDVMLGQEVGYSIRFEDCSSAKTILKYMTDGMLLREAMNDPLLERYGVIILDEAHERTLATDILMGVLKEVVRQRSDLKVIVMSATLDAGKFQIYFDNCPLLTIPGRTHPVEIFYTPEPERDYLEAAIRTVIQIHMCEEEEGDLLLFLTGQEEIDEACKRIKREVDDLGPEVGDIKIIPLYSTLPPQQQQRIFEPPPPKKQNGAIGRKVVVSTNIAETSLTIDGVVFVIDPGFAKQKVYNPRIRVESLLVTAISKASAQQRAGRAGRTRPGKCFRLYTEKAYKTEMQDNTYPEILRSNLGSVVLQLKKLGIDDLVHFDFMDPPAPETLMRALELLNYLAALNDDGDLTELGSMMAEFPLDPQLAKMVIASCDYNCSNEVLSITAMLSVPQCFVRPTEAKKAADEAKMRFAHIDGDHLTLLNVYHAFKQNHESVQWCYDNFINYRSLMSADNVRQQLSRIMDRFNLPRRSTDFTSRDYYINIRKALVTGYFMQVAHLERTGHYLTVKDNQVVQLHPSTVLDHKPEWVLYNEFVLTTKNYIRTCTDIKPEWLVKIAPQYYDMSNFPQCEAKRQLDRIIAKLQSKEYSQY
proteins of HEK293T cells transiently overexpressing caspase-6 (Homo sapiens, UniProt P31689), sequence (P31689 whole entry): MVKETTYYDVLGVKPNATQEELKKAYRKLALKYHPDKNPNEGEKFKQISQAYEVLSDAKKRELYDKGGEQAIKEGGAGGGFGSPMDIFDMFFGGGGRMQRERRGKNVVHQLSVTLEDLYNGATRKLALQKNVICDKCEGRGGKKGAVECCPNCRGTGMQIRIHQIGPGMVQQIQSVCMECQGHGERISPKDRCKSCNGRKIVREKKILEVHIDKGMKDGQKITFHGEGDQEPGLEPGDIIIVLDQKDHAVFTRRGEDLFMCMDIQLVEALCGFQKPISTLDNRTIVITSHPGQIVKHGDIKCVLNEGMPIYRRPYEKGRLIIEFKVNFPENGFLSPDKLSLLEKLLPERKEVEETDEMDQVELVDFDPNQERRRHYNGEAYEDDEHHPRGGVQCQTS
proteins of HEK293T cells transiently overexpressing caspase-6 (Homo sapiens, UniProt P32119), sequence (P32119 whole entry): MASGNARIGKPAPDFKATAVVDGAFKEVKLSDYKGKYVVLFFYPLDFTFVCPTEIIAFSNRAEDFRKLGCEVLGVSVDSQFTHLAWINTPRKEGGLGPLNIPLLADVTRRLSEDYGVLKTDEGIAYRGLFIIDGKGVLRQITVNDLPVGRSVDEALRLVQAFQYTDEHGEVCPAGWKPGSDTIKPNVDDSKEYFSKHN

## C#CCOc1ccc([C@@H]2C[C@@H](C(=O)Nc3ccc(OC(F)(F)F)cc3)CN(S(=O)(=O)C=C)C2)cc1 (relative stereo) [13-t]
[1]
  enrich.exp.med: 1.9
[2]; exp_ref Probe, analysis C6
  enrich.exp.med: 0.2961
[2]
  enrich.exp.med.lin: 1.228
  enrich.exp.med.log2: 0.2961
[3]
  enrich.exp.med: -1.006
[4]
  enrich.exp.med: 0.404
[5]
  enrich.exp.med: 0.2933
[6]
  enrich.exp.med: -0.5962
[7]
  enrich.exp.med: 1.187
[8]
  enrich.exp.med: -0.3003
[9]
  enrich.exp.med: 0.1008
[10]; exp_ref Probe, analysis C6
  enrich.exp.med: 0.9895
[10]
  enrich.exp.med.lin: 1.986
  enrich.exp.med.log2: 0.9895
[11]
  enrich.exp.med: 0.6141
[12]
  enrich.exp.med: -0.3231
[13]; exp_ref Probe, analysis C6
  enrich.exp.med: 0.3594
[13]
  enrich.exp.med.lin: 1.283
  enrich.exp.med.log2: 0.3594
[14]; exp_ref Probe, analysis C6
  enrich.exp.med: 0.7787
[14]
  enrich.exp.med.lin: 1.716
  enrich.exp.med.log2: 0.7787
[15]
  enrich.exp.med: 0.7997
[16]
  enrich.exp.med: -0.1215
[17]
  enrich.exp.med: -0.9693
